In PMC12568586, “Mass spectrometry-guided discovery of novel GCPII inhibitor scaffolds” (Frontiers in Pharmacology, 2025):
Where “and” joins values, the source holds several entries; their conditions need not be identical. Equal entries are not always repeated. Where two headings read alike, the source gives them in different places.

Legend:
human rGCPII = target: T1, human rGCPII (Homo sapiens, UniProt Q04609); test: orthogonal radioenzymatic GCPII inhibition assay (3H-NAAG); type: biochemical; conditions: NAA[3H]G 30 nM, GCPII 40 pM, 37 °C, 25 min
T1 construct: purchased Sino Biological
T1 sequence (Q04609 whole entry): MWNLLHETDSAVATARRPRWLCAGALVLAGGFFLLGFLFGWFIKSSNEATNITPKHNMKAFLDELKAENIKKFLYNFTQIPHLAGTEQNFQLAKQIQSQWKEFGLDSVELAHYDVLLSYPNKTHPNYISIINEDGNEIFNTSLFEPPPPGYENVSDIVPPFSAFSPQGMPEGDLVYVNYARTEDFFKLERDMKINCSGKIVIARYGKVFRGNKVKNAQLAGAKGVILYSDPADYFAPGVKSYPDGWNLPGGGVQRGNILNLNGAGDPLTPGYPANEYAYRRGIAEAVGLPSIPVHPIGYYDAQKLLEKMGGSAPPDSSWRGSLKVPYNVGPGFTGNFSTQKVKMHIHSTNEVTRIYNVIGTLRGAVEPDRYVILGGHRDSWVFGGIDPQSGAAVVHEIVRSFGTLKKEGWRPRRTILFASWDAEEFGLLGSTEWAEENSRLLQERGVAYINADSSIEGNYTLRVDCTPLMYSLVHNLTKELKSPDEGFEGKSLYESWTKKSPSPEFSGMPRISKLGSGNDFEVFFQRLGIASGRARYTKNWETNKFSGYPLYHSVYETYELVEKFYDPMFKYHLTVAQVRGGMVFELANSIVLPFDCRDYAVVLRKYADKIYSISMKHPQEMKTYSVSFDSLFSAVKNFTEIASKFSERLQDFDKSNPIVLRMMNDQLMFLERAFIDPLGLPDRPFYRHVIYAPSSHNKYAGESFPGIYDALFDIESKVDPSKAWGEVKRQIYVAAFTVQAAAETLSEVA
Procedure: Radioenzymatic assay using ^3H-NAAG was performed as previously described ([Barinka et al., 2002]). Briefly, a 50 μL reaction mixture containing NAA [^3H]G (30 nM, 49 μCi/nmol) and GCPII (40 pM), in Tris-HCl (pH 7.4, 40 mM) with 1 mM CoCl2 was incubated at 37 °C for 25 min and stopped with 50 μL ice-cold sodium phosphate buffer (pH 7.5, 0.1 M). AG1X8 ion-exchange resin was used to separate cleaved [^3H]glutamate, and the flowthrough was transferred to solid scintillator-coated 96-well plates (Packard) and allowed to dry. Radioactivity was measured by a Topcount NXT from Packard. Each compound was run in duplicate, and 6–8-point dose-response curves were generated.

GCPII [1] = target: T2, GCPII (Homo sapiens, UniProt Q04609); test: dual-stream LC/MS/MS GCPII substrate cleavage (inhibition) assay; type: biochemical; parameters: purchased Sino Biological; conditions: for IC50: follow up screening, triplicate IC50 values ± standard deviation, read-out: IC50 (mass spec assay); for Max resp (100uM) / HTS max resp: in % (unit assumed); for inhibition at 10 µM: read-out: inhibition relative to the DMSO and no enzyme controls
T2 sequence (Q04609 whole entry): as above
Procedure: The novel high-throughput dual-stream liquid chromatography–tandem mass spectrometry method used to screen for this study was recently published ([Hoxie et al., 2024]). Briefly, a 5 μL solution containing recombinant GCPII (SinoBio) in Tris–HCl (pH 7.4) with 1 mM CoCl2 was dispensed using a BioRAPTR 2.0 Flying Reagent Dispenser (Let’s Go Robotics) into 384-well assay plates (Greiner 784,201) pre-spotted with 100 nL of compound in DMSO using an Echo 655 Acoustic Liquid Handler (Beckman). Enzyme and compound were incubated for 15 min prior to the addition of 5 μL of ^13C5 ^15N-acetylaspartylglutamate (Aldrich). After 30 min s at room temperature, reactions were quenched using 0.2 μM D3-glutamate in LC/MS-grade acetonitrile and 0.1% formic acid. A 2-min liquid chromatography method utilizing a 2.1 × 30 mm BEH Amide HILIC column (Waters) was used to resolve glutamate from NAA and NAAG. A Sciex 6,500+ Q-Trap mass spectrometer was utilized for MS/MS quantification of released glutamate in the presence of compound. The integrated peak areas were normalized against the d3-glutamate internal standard, and then degree of inhibition was calculated using replicates containing no enzyme and enzyme with equivalent volumes of DMSO. Compounds were initially screened in a 10 μL reaction volume with 10 μM (final) compound dissolved in DMSO. […] To further increase throughput and the efficiency of screening, LC/MS analysis of libraries was conducted in dual-stream mode on an LS-1 autosampler (Sound Analytics).

[2] = target: T3, recombinant human (rh) GCPII (Homo sapiens, UniProt Q04609); test: nanoDSF thermal shift assay; type: binding; conditions: for shift in Tm (Δ): compound at 25 μM, vs DMSO; for Tm of GCPII in the presence of compound: compound at 250 μM, DMSO Tm 78.93 °C
T3 construct: purchased Sino Biological
T3 sequence (Q04609 whole entry): as above
Procedure: nanoDSF experiments were performed to assess the thermal stability of GCPII in the presence of various inhibitors. Protein samples were prepared at a concentration of 0.15 mg/mL in 50 mM Tris-HCl (pH 7.4), 1 mM CoCl2, 150 mM NaCl, and 0.01% Tween-20. Samples were incubated at 25 °C for 30 min prior to measurement with shaking at 1,000 rpm. Thermal unfolding was monitored using a Prometheus Panta nanoDSF instrument using standard capillaries (NanoTemper Technologies). The intrinsic fluorescence at 350 nm and 330 nm was recorded as a function of temperature, and the fluorescence ratio (350/330 nm) and its first derivative were used to track protein unfolding. A thermal gradient from 25 °C to 95 °C was applied at a rate of 0.5 °C per minute. The melting temperature (Tm) was determined from the global maximum of the first derivative of the fluorescence ratio curve. Each condition was tested in at least three independent replicates, and data was analyzed using PR. ThermControl software (NanoTemper Technologies). One-way ANOVA with multiple comparisons to the DMSO vehicle control group was used to determine significant shifts from the control thermal unfolding profile.

[3] = pharmacokinetic and brain penetration study in mice; type: in vivo; conditions: 100 mg/kg IP, C57BL/6 mice
Procedure: Pharmacokinetic studies in mice were approved by the Animal Care and Use Committee at Johns Hopkins University. Male C57BL/6 mice (25–30 g) were housed under a 12-h light-dark cycle with ad libitum access to food and water. Cefsulodin was administered intraperitoneally (IP) at a dosage of 100 mg/kg prepared freshly (5% DMSO and 95% HEPES saline v/v) with a dosing volume of 10 mL/kg. Blood and brain tissue samples were collected at 0.083–3 h post-administration (n = 3 per time point). Blood was obtained via cardiac puncture, and plasma was separated by low-speed centrifugation at 3,000 × g for 15 min and stored at −80 °C. Brain tissues were harvested, and immediately frozen in liquid nitrogen, and stored at −80 °C until analyses.
As cefsulodin is known to be unstable, plasma and brain tissue samples were prepared with the addition of 2% formic acid in water to adjust the pH to 5 ([Lecaillon et al., 1982]). For quantification of cefsulodin, plasma samples were diluted 10-fold with blank plasma, and a total of 40 μL of plasma was extracted using a protein precipitation method by adding methanol containing the internal standard (diclofenac, 1 μM). The mixture was vortex-mixed for 30 s and centrifuged at 14,000 rpm for 5 min at 4 °C. Brain tissues were homogenized in methanol at a 1:5 (w/v) ratio. A 50 μL aliquot of the homogenate was precipitated with methanol containing the internal standard, vortex-mixed, and centrifuged at 14,000 rpm for 5 min at 4 °C. A 150 μL aliquot of the supernatant was transferred to a polypropylene vial sealed with a Teflon cap and analyzed by liquid chromatography with tandem mass spectrometric methods (LC-MS/MS) as described below.
Cefsulodin concentrations in mouse plasma and brain were measured using a Shimadzu Nexera X2 LC-40D system (Shimadzu Corporation, Kyoto, Japan) coupled with an API 6500 triple quadrupole mass spectrometer (AB Sciex, Redwood City, CA, United States). […] Quantitation was performed in multiple reaction monitoring (MRM) mode using cefsulodin (533.03 > 123.03) and diclofenac as the internal standard (296.13 > 215.03) ([Zhou et al., 2024]; [Park et al., 2024]). Calibration curves were constructed over the range of 0.01–100 nmol/mL or nmol/g for plasma and brain, respectively.
Plasma concentrations (nmol/mL) and brain concentrations (nmol/g) were determined, and mean concentration-time profiles were plotted for pharmacokinetic analysis. Non-compartmental analysis was performed using the Phoenix WinNonlin software version 8.4 (Certara United States, Inc., Princeton, NJ) to calculate pharmacokinetic parameters, including the maximum concentration (Cmax), time to Cmax (Tmax), and area under the concentration-time curve (AUC0–t).

GCPII [4] = target: T2, GCPII; test: mode of inhibition study (radioenzymatic assay, varied NAA[3H]G, Michaelis-Menten analysis); conditions: for Ki: Ki (secondary plot Km app/Vmax vs [inhibitor], −X intercept), 40 pM GCPII; for mode of inhibition: NAAG as substrate
Procedure: The mode of inhibition was also determined as previously described following the same procedure as the radioenzymatic-based IC50 assay but with modification of the concentrations of NAA [^3H]G. ([Barinka et al., 2002]). […] A Michaelis-Menten kinetics analysis was done to determine the Km and Vmax at each inhibitor concentration.

GCPII [5] = conditions: prior art compound, value given when selected for assay validation; no reference given; cited from earlier work
[6] = library screening, seven-point dose response, read-out: AC50
[7] = maximum response at 100uM, dose response

Structure (SMILES)	IC50 (human rGCPII)	IC50 (GCPII [1])	Max resp (100uM) (GCPII [1]; [7])	HTS max resp (GCPII [1]; primary high-throughput screen)	inhibition at 10 µM (GCPII [1]; single point screen at 10 µM)	also measured
O=C(O)CCC(CP(=O)(O)O)C(=O)O (stereo not shown) [2-PMPA, 2-(phosphonomethyl)pentanedioic acid]			−98.19	−100.00	≥ 50%	Tm of GCPII in the presence of compound [2]: 90.70 °C; IC50 (GCPII [5]): […]
N[C@@H](Cn1oc(=O)[nH]c1=O)C(=O)O [L-Quisqualic acid]						IC50 (GCPII [5]): 10000 nM; AC50 (GCPII [1]): 7900 nM; HTS max resp (GCPII [1]): −93.07; Max resp (100uM) (GCPII [1]): −91.35; inhibition at 10 µM (GCPII [1]): ≥ 50%
O=C1OC(c2ccc(O)c(S(=O)(=O)O)c2)(c2ccc(O)c(S(=O)(=O)O)c2)c2c(Br)c(Br)c(Br)c(Br)c21 [Sulfobromophthalein]	230 ± 100 nM	400 ± 100 nM				
O=S(=O)(O)c1ccc2c(/N=N/c3ccc(S(=O)(=O)O)c4ccccc34)c(O)c(S(=O)(=O)O)cc2c1 [Amaranth]	300 ± 10 nM	1500 ± 300 nM	−101.68	−101.93		shift in Tm (Δ) [2]: 0.76 °C; AC50 (GCPII [1]; [6]): 2500 nM; Ki (GCPII [4]): 1100 ± 60 nM; mode of inhibition (GCPII [4]): non-competitive inhibition
O=C(O)CCC(CCCS)C(=O)O (stereo not shown) [2-MPPA, 2-(3-mercaptopropyl)pentanedioic acid]			−96.75	−100.00	≥ 50%	Tm of GCPII in the presence of compound [2]: 79.25 °C; IC50 (GCPII [5]): 90 nM
O=C(O)C1=C(CSc2nnnn2CS(=O)(=O)O)CS[C@@H]2[C@H](NC(=O)[C@H](O)c3ccccc3)C(=O)N12 [Cefonicid sodium]	4900 ± 2000 nM	32000 ± 2000 nM				

Continued, in another order:

IC50 (human rGCPII)	IC50 (GCPII [1])	Max resp (100uM) (GCPII [1]; [7])	HTS max resp (GCPII [1]; primary high-throughput screen)	inhibition at 10 µM (GCPII [1]; single point screen at 10 µM)	Structure (SMILES)	also measured
210 ± 50 nM	2100 ± 400 nM				Cc1cc(-c2ccc(/N=N/c3c(S(=O)(=O)O)cc4cc(S(=O)(=O)O)cc(N)c4c3O)c(C)c2)ccc1/N=N/c1c(S(=O)(=O)O)cc2cc(S(=O)(=O)O)cc(N)c2c1O [Trypan blue]	
2000 ± 100 nM	3600 ± 300 nM	−98.19	−92.18		NC(=O)c1cc[n+](CC2=C(C(=O)O)N3C(=O)[C@@H](NC(=O)[C@@H](c4ccccc4)S(=O)(=O)[O-])[C@H]3SC2)cc1 [Cefsulodin]	shift in Tm (Δ) [2]: 0.65 (±0.07) °C; brain penetration index [3]: low; brain Cmax ([3]; brain): 4 µM and 4.9 µM; brain exposure (AUC) ([3]; brain): 4.36 ± 1.12 nmol·h/g; time of brain Cmax ([3]; brain, post-dose): 30 min; AC50 (GCPII [1]; [6]): 3900 nM; Ki (GCPII [4]): 2500 nM and 2000 nM; mode of inhibition (GCPII [4]): competitive, active-site inhibition
14000 ± 6000 nM	29000 ± 400 nM				NCc1ccccc1CC(=O)N[C@@H]1C(=O)N2C(C(=O)O)=C(CSc3nnnn3CC(=O)O)CS[C@H]12 [Ceforanide]	
2000 ± 1000 nM	9700 ± 3000 nM				CO[C@@]1(NC(=O)C2SC(=C(C(N)=O)C(=O)O)S2)C(=O)N2C(C(=O)O)=C(CSc3nnnn3C)CS[C@@H]21 (stereo partly shown) [Cefotetan]	
				≥ 50%	CN(Cc1cnc2nc(N)nc(N)c2n1)c1ccc(C(=O)N[C@@H](CCC(=O)O)C(=O)O)cc1 [Methotrexate]	
				≥ 50%	Nc1nc(=O)c2nc(CNc3ccc(C(=O)N[C@@H](CCC(=O)O)C(=O)O)cc3)cnc2[nH]1 [Folic Acid]	
1900 ± 300 nM	11000 ± 200 nM				CC1(C)C(/C=C/C=C/C=C/C=C2\N(CCCCS(=O)(=O)O)c3ccc4ccccc4c3C2(C)C)=[N+](CCCCS(=O)(=O)[O-])c2ccc3ccccc3c21 [Indocyanine green]	
